Test results published in US20260167623A1 (NIKANG THERAPEUTICS, INC., priority 2022, published 2026).

Biological target: T1, CDK2 (Homo sapiens, UniProt P24941)
T1 construct: High-Throughput Measurement of Cellular Endogenous CDK2; endogenous in cells; host or cells: OVCAR3
Assay: Inhibition of CDK2: phospho-Rb (S807/811) HTRF measurement in OVCAR3 cells, 24 h
Format: cell-based
Settings: 24 h compound treatment, read-out: pRB_OVCAR3_24h
Protocol: Inhibition of CDK2: Phospho-R^b Measurement in Cells
Phosphorylation of RB protein at S807/811 were measured using HTRF phospho-RB cellular kits (Cat #64RBS807PEG) from Cisbio.
On Day 1, OVCAR3 (CDK2 dependent cell line) cells were seeded into 96-well tissue-culture treated plates at 20,000 cells/well in 200 μL and incubated overnight at 37° C. in CO2 atmosphere. On Day 2, the cells were treated with test compounds at concentrations from 0.3 to 10,000 nM using HP D300 digital dispenser. Twenty-four hours after compound treatment, cell culture media is removed by flicking the plate and tapping the plate against clean paper towel. 30 μL 1× lysis buffer was supplemented from the kit was added to each well and the plate was incubated at room temperature on shaker for 30 min. After homogenization by pipetting up and down, 8 μL cell lysate from 96-well cell culture plate was transferred to 384-well small volume white detection plate. 2 μL premixed detection solution was added and the plate was covered with sealer. To prepare the detection solution, d2 conjugated-phospho-RB antibody and Eu-cryptate conjugated phosphor-RB antibody were diluted into detection buffer following manufacturer's instruction. Detection plates were incubated for 4 h at room temperature and read on ClarioStar (BMG Labtech) in TR-FRET mode (665 nM and 620 nM). The TR-FRET ratio (665 nM/620 nM) was plotted against the compound concentration and normalized to DMSO controls. Half maximal inhibition concentration (IC50) values were calculated with a four-parameter logistic fit using GraphPad Prism (version 8; La Jolla, CA).

Row | IC50 [nM] | Compound
1 | 100 to 500 | O=C1CCN(c2cnc3c(C4CCN(CC5CCN(c6cccc(S(=O)(=O)N7CCC(Nc8ncc(Cl)cn8)CC7)c6)CC5)CC4)cccn23)C(=O)N1 [Example 213, 1-(8-(1-((1-(3-((4-((5-chloropyrimidin-2-yl)amino)piperidin-1-yl)sulfonyl)phenyl)piperidin-4-yl)methyl)piperidin-4-yl)imidazo[1,2-a]pyridin-3-yl)dihydropyrimidine-2,4(1H,3H)-dione]
2 | > 2500 | Cn1nc(N2CCC(=O)NC2=O)c2ccc(C3CCN(CC4CCN(c5cccc(S(=O)(=O)c6ccc(Nc7ncc(C(F)(F)F)cn7)cc6)c5)CC4)CC3)cc21 [Example 245, 1-(1-methyl-6-(1-((1-(3-((4-((5-(trifluoromethyl)pyrimidin-2-yl)amino)phenyl)sulfonyl)phenyl)piperidin-4-yl)methyl)piperidin-4-yl)-1H-indazol-3-yl)dihydropyrimidine-2,4(1H,3H)-dione]
3 | 100 to 500 | O=C1CCC(N2Cc3cc(N4CCN(CC5CCN(c6cccc(S(=O)(=O)N7CCC(Nc8ncc(C(F)(F)F)cn8)CC7)c6)CC5)CC4)c(F)cc3C2=O)C(=O)N1 (centres unmarked) [Example 101, 3-(6-fluoro-1-oxo-5-(4-((1-(3-((4-((5-(trifluoromethyl)pyrimidin-2-yl)amino)-piperidin-1-yl)sulfonyl)phenyl)piperidin-4-yl)methyl)piperazin-1-yl)isoindolin-2-yl)piperidine-2,6-dione]
4 | 100 to 500 | Cn1nc(N2CCC(=O)NC2=O)c2ccc(C3CCN(Cc4cccc(S(=O)(=O)N5CCC(Nc6ncc(C(F)(F)F)cn6)CC5)c4)CC3(F)F)cc21 (centres unmarked) [Example 3, 1-(6-(3,3-difluoro-1-(3-((4-((5-(trifluoromethyl)pyrimidin-2-yl)amino)-piperidin-1-yl)sulfonyl)benzyl)-piperidin-4-yl)-1-methyl-1H-indazol-3-yl)dihydropyrimidine-2,4(1H,3H)-dione]
5 | > 2500 | Cn1nc(N2CCC(=O)NC2=O)c2ccc(C3CCN(CC4CCN(c5cccc(S(=O)(=O)[C@H]6CC[C@H](Nc7ncc(C(F)(F)F)cn7)CC6)c5)CC4)CC3)cc21 [Example 240]
6 | 500 to 2500 | Cn1nc(N2CCC(=O)NC2=O)c2ccc(C#CCN3CCN(c4cccc(S(=O)(=O)N5CCC(Nc6ncc(Cl)cn6)CC5)c4)CC3)cc21 [Example 231, 1-(6-(3-(4-(3-((4-((5-chloropyrimidin-2-yl)amino)piperidin-1-yl)sulfonyl)phenyl)piperazin-1-yl)prop-1-yn-1-yl)-1-methyl-1H-indazol-3-yl)dihydropyrimidine-2,4(1H,3H)-dione]
7 | 100 to 500 | O=C1CCC(N2Cc3cc(N4CCN(CC5CCN(c6cccc(S(=O)(=O)N7CCC(Nc8ncc(OC(F)F)cn8)CC7)c6)CC5)CC4)c(F)cc3C2=O)C(=O)N1 (centres unmarked) [Example 106, 3-(5-(4-((1-(3-((4-((5-(difluoromethoxy)-pyrimidin-2-yl)amino)piperidin-1-yl)sulfonyl)phenyl)piperidin-4-yl)methyl)-piperazin-1-yl)-6-fluoro-1-oxoisoindolin-2-yl)piperidine-2,6-dione]

The remaining lines, values behind:

Row | Compound | IC50 [nM]
8 | Cn1nc(N2CCC(=O)NC2=O)c2ccc(C3CCN(CC4CCN(S(=O)(=O)c5ccc(Nc6ncc(C(F)(F)F)cn6)c(F)c5)CC4)CC3)cc21 [Example 18, 1-(6-(1-((1-((3-fluoro-4-((5-(trifluoro-methyl)pyrimidin-2-yl)amino)phenyl)-sulfonyl)piperidin-4-yl)methyl)piperidin-4-yl)-1-methyl-1H-indazol-3-yl)dihydropyrimidine-2,4(1H,3H)-dione] | 500 to 2500
9 | Cn1nc(N2CCC(=O)NC2=O)c2ccc(N3CCC(NCc4cccc(S(=O)(=O)N5CCC(Nc6ncc(C(F)(F)F)cn6)CC5)c4)CC3)cc21 [Example 85, 1-(1-methyl-6-(4-((3-((4-((5-(trifluoro-methyl)pyrimidin-2-yl)amino)piperidin-1-yl)sulfonyl)benzyl)amino)piperidin-1-yl)-1H-indazol-3-yl)dihydropyrimidine-2,4(1H,3H)-dione] | 500 to 2500
10 | Cn1nc(N2CCC(=O)NC2=O)c2ccc(C3CCN(CC4CCN(c5cccc(S(=O)(=O)N6CC(Nc7ncc(C(F)(F)F)cn7)C6)c5)CC4)CC3)cc21 [Example 178, 1-(1-methyl-6-(1-((1-(3-((3-((5-(trifluoromethyl)pyrimidin-2-yl)amino)azetidin-1-yl)sulfonyl)phenyl)piperidin-4-yl)methyl)piperidin-4-yl)-1H-indazol-3-yl)dihydropyrimidine-2,4(1H,3H)-dione] | > 2500
11 | Cn1nc(N2CCC(=O)NC2=O)c2ccc(C3CCN(C[C@H]4CCCN4c4cc(S(=O)(=O)N5CCC(Nc6ncc(OC(F)F)cn6)CC5)ccc4C#N)CC3)cc21 [Example 255, (R)-4-((4-((5-(difluoromethoxy)pyrimidin-2-yl)amino)piperidin-1-yl)sulfonyl)-2-(2-((4-(3-(2,4-dioxotetrahydropyrimidin-1(2H)-yl)-1-methyl-1H-indazol-6-yl)piperidin-1-yl)methyl)pyrrolidin-1-yl)benzonitrile] | 100 to 500
12 | Cn1nc(N2CCC(=O)NC2=O)c2ccc(N3CCN(CC4CCN(c5cccc(S(=O)(=O)N6CCC(Nc7ncc(Cl)cn7)CC6)c5)CC4)C4CC43)cc21 (centres unmarked) [Example 143, 1-(6-(5-((1-(3-((4-((5-chloropyrimidin-2-yl)amino)piperidin-1-yl)sulfonyl)phenyl)-piperidin-4-yl)methyl)-2,5-diazabicyclo-[4.1.0]heptan-2-yl)-1-methyl-1H-indazol-3-yl)dihydropyrimidine-2,4(1H,3H)-dione] | 500 to 2500
13 | Cn1nc(N2CCC(=O)NC2=O)c2ccc(N3CC4CC(C3)N4CC3CCN(c4cccc(S(=O)(=O)N5CCC(Nc6ncc(C(F)(F)F)cn6)CC5)c4)CC3)cc21 [Example 126, 1-(1-methyl-6-(6-((1-(3-((4-((5-(trifluoro-methyl)pyrimidin-2-yl)amino)piperidin-1-yl)sulfonyl)phenyl)piperidin-4-yl)methyl)-3,6-diazabicyclo[3.1.1]heptan-3-yl)-1H-indazol-3-yl)dihydropyrimidine-2,4(1H,3H)-dione] | 500 to 2500
14 | Cn1nc(N2CCC(=O)NC2=O)c2ccc(C3CCN(CC4CCN(c5cccc(S(=O)(=O)N6CCC(Nc7ncc(Cl)cn7)CC6)c5F)CC4)CC3)cc21 [Example 187, 1-(6-(1-((1-(3-((4-((5-chloropyrimidin-2-yl)amino)piperidin-1-yl)sulfonyl)-2-fluorophenyl)piperidin-4-yl)methyl)piperidin-4-yl)-1-methyl-1H-indazol-3-yl)dihydropyrimidine-2,4(1H,3H)-dione] | 100 to 500
15 | Cn1c(=O)n(C2CCC(=O)NC2=O)c2cccc(C3CCN(Cc4cc(S(=O)(=O)N5CCC(Nc6ncc(OC(F)F)cn6)CC5)ccc4C#N)CC3)c21 (centres unmarked) [Example 196, 4-((4-((5-(difluoromethoxy)pyrimidin-2-yl)amino)piperidin-1-yl)sulfonyl)-2-((4-(1-(2,6-dioxopiperidin-3-yl)-3-methyl-2-oxo-2,3-dihydro-1H-benzo[d]imidazol-4-yl)piperidin-1-yl)methyl)benzonitrile] | 100 to 500
16 | Cn1nc(N2CCC(=O)NC2=O)c2ccc(C3CCN(CCC4CCCN(S(=O)(=O)N5CCC(Nc6ncc(C(F)(F)F)cn6)CC5)C4)CC3)cc21 (centres unmarked) [Example 32, 1-(1-methyl-6-(1-(2-(1-((4-((5-(trifluoromethyl)pyrimidin-2-yl)amino)-piperidin-1-yl)sulfonyl)piperidin-3-yl)ethyl)piperidin-4-yl)-1H-indazol-3-yl)dihydropyrimidine-2,4(1H,3H)-dione] | 500 to 2500
17 | Cn1nc(N2CCC(=O)NC2=O)c2ccc(C3CCN(Cc4cccc(C#Cc5cccc(S(=O)(=O)N6CCC(Nc7ncc(C(F)(F)F)cn7)CC6)c5)c4)CC3)cc21 [Example 233] | 100 to 500
18 | Cn1nc(N2CCC(=O)NC2=O)c2ccc(C3CCN(CC4CCN(c5cc(C(F)(F)F)cc(S(=O)(=O)N6CCC(Nc7ncc(Cl)cn7)CC6)c5)CC4)CC3)cc21 [Example 170, 1-(6-(1-((1-(3-((4-((5-chloropyrimidin-2-yl)amino)piperidin-1-yl)sulfonyl)-5-(trifluoromethyl)phenyl)piperidin-4-yl)methyl)piperidin-4-yl)-1-methyl-1H-indazol-3-yl)dihydropyrimidine-2,4(1H,3H)-dione] | 500 to 2500
19 | Cn1nc(N2CCC(=O)NC2=O)c2ccc(N3CCN(Cc4cccc(S(=O)(=O)N5CCC(Nc6ncc(C(F)(F)F)cn6)CC5)c4)CC3)cc21 [Example 12, 1-(1-methyl-6-(4-(3-((4-((5-(trifluoro-methyl)pyrimidin-2-yl)amino)piperidin-1-yl)sulfonyl)benzyl)piperazin-1-yl)-1H-indazol-3-yl)dihydropyrimidine-2,4(1H,3H)-dione] | 100 to 500
20 | Cn1nc(N2CCC(=O)NC2=O)c2ccc(N3CCN(Cc4cccc(S(=O)(=O)N5CCC(Nc6ncc(Cl)cn6)CC5)c4)CC3)cc21 [Example 25, 1-(6-(4-(3-((4-((5-chloropyrimidin-2-yl)amino)piperidin-1-yl)sulfonyl)benzyl)-piperazin-1-yl)-1-methyl-1H-indazol-3-yl)dihydropyrimidine-2,4(1H,3H)-dione] | 100 to 500
